This passage reports GI50 and TGI results from PubChem BioAssay (NCI).

Among the test systems are NCI/ADR-RES ovarian; PC-3 prostate; RXF 393 renal; CCRF-CEM leukemia; T-47D breast; BT-549 breast; SW-620 colon; NCI-H522 lung.
What all share (assay): growth of human tumour cells (NCI), 48 h

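Step 1: Grow cells in 96-well plates. Step 2: Expose to compound for 48 hours at 5 concentrations. Step 3: Interpolate endpoints linearly; if unreached, use highest concentration. The concentration for 50% growth inhibition is given as GI50. TGI: concentration producing complete growth inhibition.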 A value given as a limit tells only on which side of the number the result lay.

With `Cc1cc(C(=O)Nc2cc(Nc3ncccc3-c3ncnc4nc[nH]c34)ccc2F)cc(C(C)(C)C#N)c1`, the GI50 with NCI/ADR-RES ovarian is 2.81 µM; in the assay with PC-3 prostate it was 7.13 µM; in the assay on RXF 393 renal it was 4.82 µM; in the assay with CCRF-CEM leukemia, 3.47 µM; in the assay with T-47D breast, 2.59 µM; with BT-549 breast, 2.95 µM. Moreover, the GI50 was 0.649 µM in the assay on SW-620 colon and 3.54 µM with NCI-H522 lung. For the same compound, the TGI in the assay with NCI/ADR-RES ovarian is greater than 100 µM; with PC-3 prostate, greater than 100 µM; in the assay on RXF 393 renal, 42 µM; in the assay on CCRF-CEM leukemia, greater than 100 µM; in the assay with T-47D breast, greater than 91.7 µM; in the assay with BT-549 breast, greater than 100 µM. For the same compound, the TGI with SW-620 colon and with NCI-H522 lung was greater than 100 µM throughout.

Turning to `CCCCCCCCCCCCCCCCCCNC(=O)[C@H]1CSC(c2ccc(F)c(OC)c2)N1` (some centres undefined), the GI50 in the assay on NCI/ADR-RES ovarian is 1.07 µM; in the assay with PC-3 prostate, 1.55 µM; in the assay with RXF 393 renal it was 0.894 µM; in the assay on CCRF-CEM leukemia, 0.284 µM; with T-47D breast, 0.604 µM; in the assay with BT-549 breast, 0.974 µM. In the assay with SW-620 colon, the GI50 is 0.5 µM. In addition, the TGI in the assay with NCI/ADR-RES ovarian turned out to be 2.41 µM; in the assay on PC-3 prostate, 12 µM; in the assay on RXF 393 renal, 1.6 µM; in the assay with CCRF-CEM leukemia it was 1.74 µM; in the assay on T-47D breast it was 1.46 µM; in the assay with BT-549 breast, 1.85 µM. In the assay with SW-620 colon, this compound had a TGI of 1.54 µM.

Take `C/C(=N\O)[C@H]1CC[C@@]2(C)[C@@H]3CC[C@H]4C(C)(C)/C(=N/O)CC[C@@]45CC35CC[C@]12C` (some centres undefined): the GI50 was 2.76 µM in the assay on NCI/ADR-RES ovarian; 2.33 µM in the assay on PC-3 prostate; 4.02 µM in the assay with RXF 393 renal; 2.65 µM with BT-549 breast; 8.68 µM in the assay with SW-620 colon; greater than 16.7 µM with NCI-H522 lung. Besides, the TGI in the assay on NCI/ADR-RES ovarian was 7.93 µM; with PC-3 prostate it was 6.9 µM; with RXF 393 renal it was 9.67 µM; in the assay with BT-549 breast, 9.59 µM; in the assay on SW-620 colon it was greater than 16.7 µM; in the assay with NCI-H522 lung it was greater than 16.7 µM.

`O=c1c2ccccc2c(=O)c2c1sc1c(=O)c3ccc(O)cc3c(=O)c12`: the GI50 is 1.45 µM with NCI/ADR-RES ovarian; 1.63 µM with RXF 393 renal; 2.59 µM in the assay with CCRF-CEM leukemia; 2.04 µM in the assay with T-47D breast; 0.163 µM with BT-549 breast; 0.436 µM with SW-620 colon. In addition, the TGI in the assay with NCI/ADR-RES ovarian amounted to 6.87 µM; with RXF 393 renal it was 4.3 µM; in the assay on CCRF-CEM leukemia, 10.3 µM; in the assay on T-47D breast, 6.3 µM; with BT-549 breast, 0.33 µM; in the assay on SW-620 colon, 1.56 µM.

Regarding `Cc1cc(Nc2cc(N3CCN(C)CC3)nc(C#Cc3ccccc3)n2)n[nH]1`, the GI50 is 4.98 µM with NCI/ADR-RES ovarian; 3.17 µM in the assay with PC-3 prostate; 1.18 µM in the assay with RXF 393 renal; 6.89 µM with CCRF-CEM leukemia; 4.86 µM in the assay on T-47D breast; 4.68 µM in the assay on BT-549 breast. Besides, the GI50 in the assay on SW-620 colon is 2.72 µM. For the same compound, the TGI in the assay with NCI/ADR-RES ovarian was 28.8 µM; in the assay on PC-3 prostate, 25.4 µM; with RXF 393 renal, 3.79 µM; with CCRF-CEM leukemia, greater than 69.5 µM; in the assay on T-47D breast, 23 µM; in the assay with BT-549 breast, 17.8 µM. In the assay with SW-620 colon, this compound showed a TGI of 14.4 µM.

Regarding `COc1ccccc1-c1nccc(COc2ccccc2C[C@@H](Oc2ncnc3sc(-c4ccc(F)cc4)c(-c4ccc(OCCN5CCN(C)CC5)c(Cl)c4C)c23)C(=O)O)n1`, the GI50 in the assay with NCI/ADR-RES ovarian was 18.2 µM; with PC-3 prostate, 1.96 µM; in the assay with RXF 393 renal, 0.61 µM; in the assay with CCRF-CEM leukemia, 0.804 µM; in the assay with T-47D breast, 3.49 µM; in the assay on BT-549 breast, 1.03 µM. For the same compound, in the assay with SW-620 colon, the GI50 was 2.34 µM. Also, the TGI is greater than 100 µM in the assay on NCI/ADR-RES ovarian; 4.81 µM in the assay with PC-3 prostate; 2.16 µM with RXF 393 renal; greater than 35.7 µM in the assay with CCRF-CEM leukemia; 23 µM in the assay with T-47D breast; 2.59 µM with BT-549 breast. In the assay on SW-620 colon, this compound displayed a TGI of 6.88 µM.

Regarding `Cc1cc(S(N)(=O)=O)c(S/C(=N\NS(=O)(=O)c2ccccc2)c2ccc(Cl)c(Cl)c2)cc1Cl`, the GI50 in the assay with NCI/ADR-RES ovarian was 28.5 µM; with PC-3 prostate, 47.4 µM; in the assay on RXF 393 renal, 33.3 µM; in the assay on CCRF-CEM leukemia, 86 µM; in the assay with BT-549 breast, 38.8 µM; in the assay on SW-620 colon, 37.3 µM. The GI50 with NCI-H522 lung was 89 µM. Moreover, the TGI in the assay with NCI/ADR-RES ovarian was 77.6 µM; with PC-3 prostate, greater than 100 µM; in the assay on RXF 393 renal, greater than 100 µM; in the assay with CCRF-CEM leukemia, greater than 100 µM; in the assay with BT-549 breast, greater than 100 µM; with SW-620 colon, greater than 100 µM. The same compound displayed a TGI in the assay on NCI-H522 lung greater than 100 µM.

As to `COc1cc(/C=C2\C(=O)Nc3ccc(Br)cc32)cc(OC)c1OC`, the GI50 with NCI/ADR-RES ovarian is 4.01 µM; with PC-3 prostate it was 3.92 µM; with CCRF-CEM leukemia, 4.82 µM; with T-47D breast it was 3.06 µM; with BT-549 breast, 1.28 µM; in the assay with SW-620 colon it was 3.74 µM. In addition, the GI50 with NCI-H522 lung was 3.29 µM. Besides, the TGI with NCI/ADR-RES ovarian was 29.4 µM; in the assay with PC-3 prostate, greater than 100 µM; in the assay with CCRF-CEM leukemia, greater than 100 µM; in the assay with T-47D breast, greater than 100 µM; with BT-549 breast, 19.3 µM; in the assay on SW-620 colon, greater than 100 µM. This compound also returned a TGI in the assay with NCI-H522 lung greater than 50.9 µM.

For `Cc1cc(C)c2nccc(NCCCN(C)C)c2c1[N+](=O)[O-]`, the TGI with PC-3 prostate was greater than 100 µM; in the assay with RXF 393 renal it was 47.8 µM; in the assay with CCRF-CEM leukemia it was greater than 100 µM; with T-47D breast, greater than 100 µM; in the assay with BT-549 breast, greater than 100 µM; with SW-620 colon it was greater than 100 µM. This compound also returned a TGI with NCI-H522 lung of 27.5 µM.

On to `O=C(/C(=N/Nc1cn[nH]c(=O)c1Cl)c1ccccc1)c1ccccc1`, for which the TGI was 59.9 µM in the assay on NCI/ADR-RES ovarian; greater than 100 µM in the assay on PC-3 prostate; 47.3 µM with RXF 393 renal; greater than 100 µM in the assay with CCRF-CEM leukemia; 62.7 µM in the assay with T-47D breast; greater than 100 µM in the assay with SW-620 colon. The compound also returned a TGI in the assay with NCI-H522 lung of 77.2 µM.

`Cc1nnc(N=Nc2c(O)[nH]c3ccccc23)[nH]c1=O`: the TGI with NCI/ADR-RES ovarian, with PC-3 prostate, with BT-549 breast, in the assay with SW-620 colon and with NCI-H522 lung was greater than 100 µM each time.
